Test results published in the supplement of paper PMC10307832.

Columns and labels:
Test in all cases: relative viability (nuclei count vs DMSO), 5 days (fraction); higher = more cells survive
[1] = compound: CC1=C(CC(=O)O)c2cc(F)ccc2/C1=C\c1ccc([S+](C)[O-])cc1 [Sulindac] + O=C(c1cc(Cc2n[nH]c(=O)c3ccccc23)ccc1F)N1CCN(C(=O)C2CC2)CC1 [Olaparib] (partner 8 µM)
How it was run: (§1)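 For relative viability, nuclei counts in treated wells were divided by those in vehicle wells. Lung cancer cell lines had been pin-tool dosed in 1536-well plates the day after seeding and cultured for 5 days, then fixed and stained in one step (final 0.05% Triton X-100, 1% formaldehyde, 1 ug/ml Hoechst) and imaged at 4×. Doses were one drug alone or a fixed anchor-drug dose plus five library-drug doses (not always all listed) in √10 steps, and values are duplicate-plate medians.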

[2] = compound: CC1=C(CC(=O)O)c2cc(F)ccc2/C1=C\c1ccc([S+](C)[O-])cc1 [Sulindac] + Cc1nc(NC(=O)N2CCC[C@H]2C(N)=O)sc1-c1ccnc(C(C)(C)C(F)(F)F)c1 [Alpelisib] (partner 2 µM)
How it was run: as §1

[3] = compound: CN[C@@H]1C[C@H]2O[C@@](C)([C@@H]1OC)n1c3ccccc3c3c4c(c5c6ccccc6n2c5c31)C(=O)NC4 [Staurosporine] + CS(=O)(=O)CCNCc1ccc(-c2ccc3ncnc(Nc4ccc(OCc5cccc(F)c5)c(Cl)c4)c3c2)o1 [Lapatinib] (partner 2 µM)
How it was run: as §1

[4] = compound: CN[C@@H]1C[C@H]2O[C@@](C)([C@@H]1OC)n1c3ccccc3c3c4c(c5c6ccccc6n2c5c31)C(=O)NC4 [Staurosporine] + CC(=O)Nc1cccc(-n2c(=O)n(C3CC3)c(=O)c3c(Nc4ccc(I)cc4F)n(C)c(=O)c(C)c32)c1 [Trametinib] (partner 0.02 µM)
How it was run: as §1

| Cell Line | relative viability ([1]; first compound 0.08 µM) | relative viability ([1]; first compound 0.253 µM) | relative viability ([1]; first compound 0.8 µM) | relative viability ([1]; first compound 2.53 µM) | relative viability ([1]; first compound 8 µM) | relative viability ([2]; first compound 0.08 µM) | relative viability ([2]; first compound 0.253 µM) | relative viability ([2]; first compound 0.8 µM) | relative viability ([2]; first compound 2.53 µM) | relative viability ([2]; first compound 8 µM) | relative viability ([3]; first compound 0.005 µM) | relative viability ([3]; first compound 0.05 µM) | relative viability ([3]; first compound 0.1581 µM) | relative viability ([3]; first compound 0.5 µM) | relative viability ([4]; first compound 0.005 µM) | relative viability ([4]; first compound 0.01581 µM) | relative viability ([4]; first compound 0.05 µM) | relative viability ([4]; first compound 0.1581 µM) | relative viability ([4]; first compound 0.5 µM) | relative viability ([3]; first compound 0.01581 µM) |
| --- | --- | --- | --- | --- | --- | --- | --- | --- | --- | --- | --- | --- | --- | --- | --- | --- | --- | --- | --- | --- |
| LXF-289 | 1.24 | 1.18 | 0.873 | 1.18 | 1.19 | 1.1 | 1.05 | 1.02 | 1.13 | 1.06 | 0.725 | 0.389 | 0.109 | 0.0903 | 0.741 | 0.409 | 0.412 | 0.274 | 0.237 | – |
| NCI-H23 | 0.32 | 0.319 | 0.367 | 0.258 | 0.282 | 0.763 | 0.78 | 0.636 | 0.658 | 0.859 | 0.886 | 0.357 | 0.172 | 0.134 | 0.315 | 0.165 | 0.172 | 0.0936 | 0.119 | 0.184 |
| NCI-H322M | 0.674 | 0.772 | 0.742 | 0.837 | 0.87 | 0.644 | 0.777 | 0.652 | 0.848 | 0.928 | 0.746 | 0.484 | 0.402 | 0.278 | 0.518 | 0.418 | 0.342 | 0.45 | 0.432 | 0.438 |
| NCI-H358 | 0.809 | 0.667 | 0.526 | 0.573 | 0.62 | 1.01 | 0.878 | 0.684 | 0.808 | 1.1 | 0.534 | 0.259 | 0.152 | 0.136 | 0.157 | 0.111 | 0.0885 | 0.0815 | 0.0672 | 0.378 |
| NCI-H460 | 0.579 | 0.417 | 0.432 | 0.342 | 0.635 | 0.82 | 0.492 | – | 0.477 | 0.709 | 1.08 | 0.455 | 0.0071 | 0.0093 | 0.0592 | 0.0305 | 0.0206 | 0.0114 | 0.0063 | 0.389 |
| NCI-H520 | 0.36 | 0.328 | 0.302 | 0.313 | 0.283 | 0.965 | 0.839 | 0.894 | 0.873 | 1.17 | 0.935 | 0.514 | 0.178 | 0.13 | 0.708 | 0.536 | 0.303 | 0.16 | 0.112 | 0.595 |
| NCI-H596 | 0.567 | 0.697 | – | 0.716 | 0.639 | 0.554 | 0.532 | 0.551 | 0.478 | 0.485 | 1.08 | 0.419 | 0.181 | 0.157 | 0.753 | 0.494 | 0.275 | 0.184 | 0.173 | 0.749 |
| NCI-H647 | 0.689 | 0.577 | 0.346 | 0.398 | 0.785 | 1.43 | 1.27 | 0.718 | 1.15 | 1.23 | 0.603 | 0.253 | 0.0661 | 0.0597 | 0.295 | 0.151 | 0.0868 | 0.0601 | 0.0349 | 0.262 |
| NCI-H650 | 0.442 | 0.431 | 0.341 | 0.425 | 0.472 | 1.05 | 1.1 | 0.578 | 1.02 | 1.17 | 0.503 | 0.286 | 0.245 | 0.184 | 1.07 | 0.383 | 0.27 | 0.222 | 0.151 | 0.393 |
| NCI-H661 | 0.971 | 0.789 | 0.59 | 0.742 | 0.836 | 0.639 | 0.551 | 0.535 | 0.621 | 0.725 | 0.472 | 0.266 | 0.235 | 0.236 | 0.522 | 0.336 | 0.29 | 0.248 | 0.137 | 0.395 |
| NCI-H727 | 0.588 | 0.519 | 0.648 | 0.769 | 0.707 | 0.687 | 0.537 | 0.591 | 0.579 | 0.771 | 0.666 | 0.307 | 0.388 | 0.181 | 0.349 | 0.346 | 0.316 | 0.267 | 0.257 | 0.324 |
| NCI-H838 | 0.941 | 0.798 | 0.65 | 0.809 | 0.914 | 1.22 | 0.983 | 0.769 | 0.975 | 1.08 | 0.25 | 0.211 | 0.134 | 0.103 | 0.174 | 0.145 | 0.208 | 0.0937 | 0.0589 | 0.164 |
| NCI-H1355 | 0.704 | 0.691 | 0.679 | 0.66 | 0.759 | 0.912 | 0.945 | 0.784 | 0.842 | 0.854 | 0.96 | 0.272 | 0.188 | 0.193 | 0.279 | 0.255 | 0.232 | 0.22 | 0.147 | 0.557 |
| NCI-H1395 | 0.43 | 0.424 | 0.467 | 0.45 | 0.483 | 0.948 | 1.05 | 0.975 | 0.973 | 1.08 | 0.833 | 0.487 | 0.356 | 0.376 | 0.98 | 0.77 | 0.476 | 0.305 | 0.261 | 0.551 |
| NCI-H1437 | 0.748 | 0.679 | 0.503 | 0.638 | 0.665 | 1.25 | 0.905 | 0.733 | 0.946 | 1.17 | 0.698 | 0.453 | 0.152 | 0.0978 | 0.342 | 0.244 | 0.26 | 0.21 | 0.124 | 0.346 |
| NCI-H1651 | 0.17 | 0.189 | 0.162 | 0.177 | 0.169 | 1.2 | 1.1 | 0.874 | 0.911 | 1.3 | 0.708 | 0.356 | 0.107 | 0.0625 | 0.871 | 0.785 | 0.569 | 0.509 | 0.346 | 0.413 |
